Data taken from PMC8838521, “Antimicrobial, Cytotoxic and Mutagenic Activity of Gemini QAS Derivatives of 1,4:3,6-Dianhydro-L-iditol” (Molecules, 2022).
Structures can show the parent of a compound that is named as a salt.

Columns and labels:
Escherichia coli K12 = settings: strain not stated; cited from earlier work
[1] = system: Staphylococcus aureus ATCC 25923; set-up: method as in PMID 23669380; settings: strain not stated; cited from earlier work
[2] = system: human keratinocytes (HaCaT cell line); assay: Cytotoxicity, MTT assay; type: cell-based; settings: MTT, 24 h incubation
Description: To assess the cytotoxicity of QAS (IC50), the MTT assay on 96-well polystyrene plates was performed for human keratinocytes (HaCaT, Elabscience Biotechnology Inc., Houston, Texas, USA). The assay utilizes colorimetric determination of the cell metabolic activity and the color intensity reflects the number of live cells that can be measured spectrophotometrically. The cell line was cultured in a Dulbecco’s modified Eagle Medium (Invitrogen) supplemented with 10% fetal bovine serum (Sigma Aldrich) (v/v), 100 units/mL of penicillin, 100 μg/mL of streptomycin, and 2 mM L-glutamine and was stored at 37 °C in a humidified 5% CO2 incubator. Briefly, a day after plating of 500 cells per well, a series of concentrations (0.5–200 μg/mL) of the test compounds was applied. DMSO was added to the control cells at a final concentration of 1.0% (v/v), which was related to the maximal concentration of the solvent compounds used in the experiment. After 24 h of incubation with the QAS at 37 °C (humidified 5% CO2 incubator), a medium containing 1 mg/mL of MTT (3-(4,5-dimethylthiazol-2-yl)-2,5-diphenyltetrazolium bromide) was added to the wells up to a final concentration of 0.5 mg/mL. Subsequently, the plates were incubated at 37 °C for 4 h. Then, the medium was removed by suction, and the formazan product was solubilized with DMSO. The background absorbance at 630 nm was subtracted from that at 570 nm for each well (Epoch, BioTek Instruments, Winooski, VT, USA). Six replicates were conducted for each concentration. All experiments were repeated at least twice and the resulting IC50 values were calculated with GraFit 7 software (v. 7.0, Erithacus, Berkley, CA, USA).

[3] = system: Candida albicans ATCC 10231; set-up: method as in PMID 16459482; settings: strain not stated; cited from earlier work

Compound	MIC against E. coli (Escherichia coli K12)	MIC against S. aureus [1]	HaCaT IC50 [2]	MIC against C. albicans [3]	melting point
Benzalkonium chloride [BAC]	13 µg/mL	2 µg/mL	1.1 ± 1.4 µg/mL	8 µg/mL	
CCCCCCCCCC[N+](C)(C)C1COC2C1OCC2[N+](C)(C)CCCCCCCCCC (as salt: methanesulfonate) [QAS 10, N,N’-(1,4:3,6-Dianhydro-2,5-dideoxy-L-iditol-2,5-diyl)-bis(N,N-dimethyl-N-decylammonium) Ditrifluoromethanesulfonate]					191 °C (dec.)
Cn1cc[n+](C2COC3C2OCC3[n+]2ccn(C)c2)c1 (as salt: methanesulfonate) [QAS 6, N,N’-(1,4:3,6-Dianhydro-2,5-dideoxy-L-iditol-2,5-diyl)-bis(N-methylimidazolium) Ditrifluoromethanesulfonate]					90.5 to 93.7 °C
CCCCCC[N+](C)(C)C1COC2C1OCC2[N+](C)(C)CCCCCC (as salt: methanesulfonate) [QAS 8, N,N’-(1,4:3,6-Dianhydro-2,5-dideoxy-L-iditol-2,5-diyl)-bis(N,N-dimethyl-N-hexylammonium) Ditrifluoromethanesulfonate]					222.8 to 224 °C
